We go through five compounds from publication PMC7594088.

Structures are written as SMILES.

The nature of the data set: ring-closing metathesis (C=C bond) of side-chain olefins, second-generation Grubbs catalyst 20 mol %, under argon, 2 h. Particulars: CH2Cl2, 20.0 mM, 25.0 °C.

The compound `COC(=O)[C@@H]1COCC=CCO[C@@H]2C[C@@H](C(=O)N1)N(C(=O)OC(C)(C)C)C2` returned a ring closure, isolated yield (from C=CCOC[C@H](NC(=O)[C@@H]1C[C@@H](OCC=C)CN1C(=O)OC(C)(C)C)C(=O)OC, 13-membered ring) of 0%. On to `COC(=O)C1(NC(=O)[C@H](CC(C)C)NC(=O)[C@H](CC(C)C)NC(=O)C2(NC(=O)[C@H](CC(C)C)NC(=O)[C@H](CC(C)C)NC(=O)[C@@H]3COCCCC=CCO[C@H]4C[C@@H](C(=O)N3)N(C(=O)OC(C)(C)C)C4)CCCC2)CCCC1`, for which the ring closure, isolated yield (from C=CCCCOC[C@H](NC(=O)[C@@H]1C[C@H](OCC=C)CN1C(=O)OC(C)(C)C)C(=O)N[C@@H](CC(C)C)C(=O)N[C@@H](CC(C)C)C(=O)NC1(C(=O)N[C@@H](CC(C)C)C(=O)N[C@@H](CC(C)C)C(=O)NC2(C(=O)OC)CCCC2)CCCC1, 15-membered ring, 2.0 h) came to 93%. Under “from C=CCOC[C@H](NC(=O)[C@@H]1C[C@H](OCC=C)CN1C(=O)OC(C)(C)C)C(=O)N[C@@H](CC(C)C)C(=O)N[C@@H](CC(C)C)C(=O)NC1(C(=O)N[C@@H](CC(C)C)C(=O)N[C@@H](CC(C)C)C(=O)NC2(C(=O)OC)CCCC2)CCCC1, 13-membered ring”, `COC(=O)C1(NC(=O)[C@H](CC(C)C)NC(=O)[C@H](CC(C)C)NC(=O)C2(NC(=O)[C@H](CC(C)C)NC(=O)[C@H](CC(C)C)NC(=O)[C@@H]3COCC=CCO[C@H]4C[C@@H](C(=O)N3)N(C(=O)OC(C)(C)C)C4)CCCC2)CCCC1` displayed a ring closure, isolated yield of 0%. Consider `COC(=O)[C@@H]1COCC=CCO[C@H]2C[C@@H](C(=O)N1)N(C(=O)OC(C)(C)C)C2` [Boc-cis-Hyp(OAllyl)-Ser(OAllyl)-OMe (cis-4-hydroxy-L-Pro)], for which the ring closure, isolated yield (from C=CCOC[C@H](NC(=O)[C@@H]1C[C@H](OCC=C)CN1C(=O)OC(C)(C)C)C(=O)OC, 13-membered ring, 2.0 h) stood at 55%. Regarding `COC(=O)C1(NC(=O)[C@H](CC(C)C)NC(=O)[C@H](CC(C)C)NC(=O)[C@@H]2COCCCC=CC[C@]3(CCCN3C(=O)OCc3ccccc3)C(=O)N[C@@H](CC(C)C)C(=O)N[C@@H](CC(C)C)C(=O)N2)CCCC1`, where the note is “from C=CCCCOC[C@H](NC(=O)[C@H](CC(C)C)NC(=O)[C@H](CC(C)C)NC(=O)[C@]1(CC=C)CCCN1C(=O)OCc1ccccc1)C(=O)N[C@@H](CC(C)C)C(=O)N[C@@H](CC(C)C)C(=O)NC1(C(=O)OC)CCCC1, 18-membered ring, 2.0 h”, the ring closure, isolated yield stood at 96%.
